Assay results taken from US7150974B1, “Parathyroid hormone receptor binding method” (The General Hospital Corporation, priority 1991, dated 2006).

Key:
[1] = target: T1, opossum kidney PTH/PTHrP receptor clone, OK-H (Didelphis virginiana, UniProt P25107, I132F/S86P); test: Radioreceptor assay, COS cells expressing OK-H; assay type: binding; conditions: FIG. 9
T1 construct: expressed in transfected cells; host or cells: COS cells, transient, plasmid OK-H (pcDNA I)
Experimental: In brief, the labeled peptide was dissolved in 0.1% trifluoracetic acid (TFA), applied to a C18 Sep-pak cartridge (Waters Associates, Inc., Milford, Mass.) and eluted with a solution of 60% acetonitrile in 0.1% TFA. After lyophilization, the radioligand then was applied to C18-μBondapak column (3.9 mm×30 cm. Waters Associates) and eluted over 30 min with a linear gradient of 30-50% acetonitrile-0.1% TFA at a flow rate of 2 ml/min.
COS-7 cells were grown in 15 cm plates in DMEM, 10% heat-inactivated […], 10 mg/L gentamycin until 80-90% confluent. Twenty-four hours after transfection by the DEAE/Dextran method (Sambrook et al., supra), with 1-2 μg of plasmid DNA, the cells were trypsinized and replated in multiwell plastic dishes (16 or 35 mm diameter, Costar, Cambridge, Mass.) at a cell concentration of 5×10^4 cells/cm^2). […] After continuing culture for another 48 h, radiorecepter assays were performed. The culture medium was replaced with buffer containing 50 mM Tris-HCL (pH 7.7), 100 mM NaCl, 2 mM CaCl2, 5 mM KCL, 0.5% heat-inactivated fetal bovine serum (GIBCO), and 5% heat-inactivated horse serum (KC Biological Inc., Lenexa, Kans.) immediately before studies were initiated.
Incubations were terminated by aspirating the buffer, and repeatedly (×3) washing the culture dishes, containing the adherent cells with chilled 0.9% NaCl solution, over a 15 sec period. Cell-bound radioactivity was recovered by the sequential addition (×3) of 1 N NaOH (200 μl) to each well. After 30 min at room temperature, the NaOH was transferred to a glass tube. A second and third extraction with 1 N NaOH (200 μl) were combined with the first, and the total radioactivity was counted in a γ-spectrometer (Packard Instruments, Downers Grove, Ill.).

[2] = target: T2, human kidney PTH/PTHrP receptor (Homo sapiens, UniProt Q03431, L389Q); test: Intracellular free calcium, COS-7 cells expressing human receptor; assay type: cell-based
T2 construct: The full-length human kidney PTH/PTHrP receptor cDNA, HKrk, was constructed using the BamHI/PvuII fragment of PCR clone #2 and HK-2; expressed in transfected cells; host or cells: COS-7 cells, transient (DEAE/Dextran), pcDNAI
T2 sequence (Q03431 27-593 L389Q): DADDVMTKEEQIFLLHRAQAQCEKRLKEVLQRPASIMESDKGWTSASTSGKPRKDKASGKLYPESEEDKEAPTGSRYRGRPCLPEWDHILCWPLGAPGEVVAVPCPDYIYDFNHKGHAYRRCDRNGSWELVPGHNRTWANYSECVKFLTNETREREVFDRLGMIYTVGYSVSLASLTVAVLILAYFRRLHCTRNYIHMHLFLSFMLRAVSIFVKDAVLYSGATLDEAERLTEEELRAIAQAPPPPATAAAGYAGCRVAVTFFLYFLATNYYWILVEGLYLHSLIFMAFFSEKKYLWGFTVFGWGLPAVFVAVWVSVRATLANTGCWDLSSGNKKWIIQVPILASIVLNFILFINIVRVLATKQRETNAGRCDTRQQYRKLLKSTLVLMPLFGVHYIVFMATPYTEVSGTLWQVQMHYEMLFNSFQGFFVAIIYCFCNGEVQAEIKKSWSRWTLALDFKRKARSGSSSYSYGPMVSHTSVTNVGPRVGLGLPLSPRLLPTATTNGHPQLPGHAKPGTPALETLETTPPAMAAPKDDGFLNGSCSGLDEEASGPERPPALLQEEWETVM
Experimental: (§1) Details of the methodology are:
(§2) Coverslips plated with COS cells were incubated in Fura-2 AM loading buffer containing, in mM: HEPES (N-[2-Hydroxyethyl]piperazine-N′-[2-ethanesulfonic acid]), 20; CaCl2, 1; KCl 5; NaCl, 145; MgSO4, 0.5; NaHCO3, 25; K2HPO4, 1.4; glucose, 10; and Fura-2 AM 91-(2-5′-carboxyoxazol-2′-yl)-6-aminobenzofuran-5oxy-(2′-amino-5′-methylphenoxy)ethane-N,N,N′,N′-tetraaecetic acid acetomethoxy ester), 0.5; at 37° C. at pH7.4, aerated with 95% air and 5% CO2 for 45 minutes. Cells loaded with Fura-2 AM were then washed with a modified Krebs-Heinseleit (KH) buffer containing, in mM: HEPES, 20; CaCl2, 1; KCl, 5; NaCl, 145; MgSO4, 0.5; Na2HPO4, 1; glucose, 5; pH7.4. To check that cleavage of the ester occurred, the excitation spectra after different times of Fura-2 AM incubation were measured.
(§3) To measure fluorescence of individual cells, the cover slips were placed in a microscope tissue chamber (Biophysica Technologies, Inc., MD). The chamber consisted of a shallow, sloped compartment made of Teflon with a silicone rubber seal. The cover slips served as the bottom of the chamber. A heater/cooler ring was encased in the silicone rubber which sealed the coverslip in place.

[3] = target: T3, rat bone PTH/PTHrP receptor (Rattus norvegicus, UniProt P25961, E586G); test: Intracellular free calcium, COS-7 cells expressing R15B; assay type: cell-based; conditions: COS-7 cells expressing rat receptor
T3 construct: expressed in transfected cells; host or cells: COS / COS-7 cells, transient, plasmid R15B (pcDNA I)
T3 sequence (P25961 27-591 E586G): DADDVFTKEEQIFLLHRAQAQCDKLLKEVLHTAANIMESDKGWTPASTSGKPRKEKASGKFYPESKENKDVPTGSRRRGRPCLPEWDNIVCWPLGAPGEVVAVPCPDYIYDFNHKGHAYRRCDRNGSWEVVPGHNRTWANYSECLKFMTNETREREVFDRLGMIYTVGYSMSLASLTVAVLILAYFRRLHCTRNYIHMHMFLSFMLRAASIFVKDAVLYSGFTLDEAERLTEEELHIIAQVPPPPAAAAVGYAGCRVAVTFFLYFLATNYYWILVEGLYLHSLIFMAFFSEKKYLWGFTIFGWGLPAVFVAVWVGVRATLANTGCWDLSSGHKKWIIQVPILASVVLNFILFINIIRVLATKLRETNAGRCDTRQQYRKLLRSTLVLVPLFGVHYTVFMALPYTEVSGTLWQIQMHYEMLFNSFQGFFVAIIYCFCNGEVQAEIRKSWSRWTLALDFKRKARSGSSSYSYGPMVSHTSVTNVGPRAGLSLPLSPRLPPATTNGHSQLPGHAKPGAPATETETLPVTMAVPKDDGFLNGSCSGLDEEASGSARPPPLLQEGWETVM
Experimental: as §1, §2, §3

[4] = target: T4, opossum kidney PTH/PTHrp receptor clone, OK-O (Didelphis virginiana, UniProt P25107, I132F/S86P); test: Inositol phosphate metabolism, COS cells expressing OK-O; assay type: cell-based; conditions: FIG. 15, listed as NlePTH
T4 construct: expressed in transfected cells; host or cells: COS cells, transient, plasmid OK-O (pcDNA I)
T4 sequence (P25107 27-585 S86P/I132F): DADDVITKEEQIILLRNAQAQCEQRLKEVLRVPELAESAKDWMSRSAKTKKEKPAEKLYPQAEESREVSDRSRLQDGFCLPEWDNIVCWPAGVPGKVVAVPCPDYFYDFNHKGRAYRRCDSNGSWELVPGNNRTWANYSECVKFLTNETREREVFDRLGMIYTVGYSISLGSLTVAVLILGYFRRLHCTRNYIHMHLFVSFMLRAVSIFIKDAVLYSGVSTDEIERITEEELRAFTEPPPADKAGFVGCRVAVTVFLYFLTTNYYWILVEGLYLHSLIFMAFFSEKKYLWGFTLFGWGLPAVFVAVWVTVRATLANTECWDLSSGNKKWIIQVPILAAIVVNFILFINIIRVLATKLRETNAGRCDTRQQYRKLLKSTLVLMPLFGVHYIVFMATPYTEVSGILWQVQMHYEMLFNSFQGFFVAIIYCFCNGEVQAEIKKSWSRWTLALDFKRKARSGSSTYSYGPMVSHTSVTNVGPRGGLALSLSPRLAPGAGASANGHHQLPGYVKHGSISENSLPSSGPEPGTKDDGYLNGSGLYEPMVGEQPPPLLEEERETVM

T1 sequence (P25107 other isoform, or with tags, fused parts or gaps S86P/I132F): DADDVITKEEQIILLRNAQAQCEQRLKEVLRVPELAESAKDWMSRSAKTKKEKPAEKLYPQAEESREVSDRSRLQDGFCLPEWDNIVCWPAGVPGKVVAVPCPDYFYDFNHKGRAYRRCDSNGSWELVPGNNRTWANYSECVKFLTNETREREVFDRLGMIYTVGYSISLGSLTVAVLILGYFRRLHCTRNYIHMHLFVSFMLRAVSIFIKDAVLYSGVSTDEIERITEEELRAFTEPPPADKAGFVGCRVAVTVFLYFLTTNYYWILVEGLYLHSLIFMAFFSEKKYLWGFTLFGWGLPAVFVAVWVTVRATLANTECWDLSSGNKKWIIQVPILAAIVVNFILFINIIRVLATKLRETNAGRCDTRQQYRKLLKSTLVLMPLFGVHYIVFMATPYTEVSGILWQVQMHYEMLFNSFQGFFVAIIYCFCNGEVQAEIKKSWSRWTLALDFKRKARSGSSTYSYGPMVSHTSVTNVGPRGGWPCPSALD

[Nle^8,18, Tyr^34]bPTH(1-34)amide
inhibition of 125I-PTHrP binding by competitor [1]: inhibited | increase in intracellular free calcium, PTH(1-34) compared with PTHrP(1-36) [2]: to the same extent | increase in intracellular free calcium, PTH(1-34) compared with PTHrP(1-36) [3]: to the same extent | inositol phosphate metabolism (IP3 and IP2 accumulation) [4]: rapid increase
